# Reference: ChEMBL document CHEMBL4049443, “Discovery of 2-[[2-Ethyl-6-[4-[2-(3-hydroxyazetidin-1-yl)-2-oxoethyl]piperazin-1-yl]-8-methylimidazo[1,2-a]pyridin-3-yl]methylamino]-4-(4-fluorophenyl)thiazole-5-carbonitrile (GLPG1690), a First-in-Class Autotaxin Inhibitor Undergoing Clinical Evaluation for the Treatment of Idiopathic Pulmonary …” (J Med Chem, 2017)
# Assays:
# Cytochrome P450 3A4 = Cytochrome P450 3A4 (Homo sapiens, UniProt P08684); experiment: Time-dependent inhibition of human liver microsomes CYP3A4; format: ADME
# Autotaxin = Autotaxin (Homo sapiens, UniProt Q13822); experiment: Inhibition of human ATX using LPC (16:0) as substrate after 30 mins by horseradish peroxidase/choline oxidase coupled enzyme based spectrophotometric analysis
# Sequence of Cytochrome P450 3A4 (P08684 whole entry): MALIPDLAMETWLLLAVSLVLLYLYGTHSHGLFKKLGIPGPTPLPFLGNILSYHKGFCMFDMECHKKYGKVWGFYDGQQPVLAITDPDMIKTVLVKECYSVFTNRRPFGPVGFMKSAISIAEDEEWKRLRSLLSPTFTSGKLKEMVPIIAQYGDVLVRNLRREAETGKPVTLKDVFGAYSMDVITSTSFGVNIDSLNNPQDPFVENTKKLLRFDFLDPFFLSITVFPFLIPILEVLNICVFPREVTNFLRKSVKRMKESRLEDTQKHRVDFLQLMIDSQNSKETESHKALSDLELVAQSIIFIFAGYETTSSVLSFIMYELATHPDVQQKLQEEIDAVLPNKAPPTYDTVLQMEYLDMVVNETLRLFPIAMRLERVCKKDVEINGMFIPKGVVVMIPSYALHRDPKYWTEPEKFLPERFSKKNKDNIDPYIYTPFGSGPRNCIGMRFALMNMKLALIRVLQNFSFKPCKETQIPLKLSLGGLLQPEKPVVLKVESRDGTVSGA
SMILES,TDI (Cytochrome P450 3A4),IC50 (Autotaxin) [nM]
CCc1nc2c(C)cc(C3CCN(CC(=O)N4CC(O)C4)CC3)cn2c1N(C)c1nc(-c2ccc(F)cc2)c(C#N)s1,Not Active,103
CCc1nc2ccc(C3CCN(CC(=O)N4CC(O)C4)CC3)nn2c1N(C)c1nc(-c2ccc(F)cc2C#N)ns1,Active,297
CCc1nc2cc(C)c(C3CCN(CC(=O)N4CC(O)C4)CC3)cn2c1N(C)c1nc(-c2ccc(F)cc2)cs1,Not Active,811
CCc1nc2ccc(N3CCN(CC(=O)N4CC(O)C4)CC3)cn2c1N(C)c1nc(-c2ccc(F)cc2)cs1,Active,274
CCc1nc2ccc(C3CCN(CC(=O)N4CC(O)C4)CC3)cn2c1N(C)c1nc(-c2ccc(F)cc2)cs1,Active,246
CCc1nc2ccc(C3CCN(CC(=O)N4CC(O)C4)CC3)nn2c1N(C)c1ccc(C#N)c(-c2ccc(F)cc2)n1,Active,192
